One experiment concerns DBA/1 mice. Kind of experiment: Therapeutic CIA study AA#79 (female mice), disease score. Type of experiment: in vivo, mouse. Here is the method:
DBA/1 mice (10 per group) aged 7-9 weeks were used for the CIA model. Mice from several vendors (Jackson Laboratories, Harlan Laboratories, and Taconic Farms) were tested and it was determined that Taconic mice are most appropriate for the CIA studies. Taconic mice develop more consistent and severe disease symptoms and show continued disease progression, while mice from the other vendors often show stable, less severe disease, even in the absence of treatment. female (F) mice in AA#79 and male (M) mice in AA#80, were tested to determine which gender to use in future experiments.
On the day before the study is initiated, the hair on the right flank of each mouse was removed using an electric clipper. A metal identification tag was placed on the right ear of each mouse. On Day 0, mice were immunized with 100 μL of chicken collagen type II/Complete Freund's Adjuvant (CII/CFA) emulsion in the right flank. On Day 20, the hair on the left flank of each mouse was removed using an electric clipper, and on Day 21, mice were immunized with 100 μL of chicken collagen type II/Incomplete Freund's Adjuvant (CII/IFA) emulsion in the left flank. Pre-filled syringes of CII/CFA and CII/IFA emulsion purchased from Hooke Laboratories were used to ensure consistent dosing with and potency of the immunogen.
Early arthritis symptoms, such as erythema and mild swelling, usually appear on Day 21, and on Day 28, more severe symptoms such as swelling in many digits and inflammation extending to the tarsal joint are typically present. Each limb is evaluated for severity of arthritis symptoms three times a week using a widely accepted arthritis severity score system, shown in Table 2. The scores from each of the 4 limbs are summed to yield the disease score of each mouse. […]
Treatment was initiated when the average disease score for the study animals was greater than four. This corresponded to Day 29 in AA#79 and Day 24 in […]. By waiting until animals are symptomatic, it was ensured that the model is performed in a therapeutic rather than prophylactic mode.
B7-H4-Ig, RPA110010, and murine B7-H4-Ig proteins were administered by intraperitoneal (IP) injection 3 times a week for a total of 8 doses. RPA110010 is an extracellular domain variant of B7-H4-Ig, SEQ ID NO:126. Control murine and human IgG proteins were given once a week for a total of 3 doses. […] All proteins were diluted to the desired concentration (500 μg in 500 μL, or 1 mg/mL) with sterile PBS immediately before injection. Vehicle control mice receive Amplimmune formulation buffer diluted 1:10 in PBS, with an injection volume of 500 μL.

In another experiment the test system is SJL mice. Description: PLP139-151-induced R-EAE model, clinical score and relapse. The format is in vivo, mouse. Here is the method: For PLP139-151-induced R-EAE, 6- to 7-wk-old female SJL mice were immunized s.c. with 100 μL of an emulsion containing 200 μg of M. tuberculosis H37Ra and 50 μg of […] (HSLGKWLGHPDKF) (SEQ ID NO:139) distributed over three spots on the flank. Individual animals were observed daily and clinical scores assessed in a blinded fashion on a 0-5 scale as shown in Table 11 (Miller, et al., Curr. Protocols Immulo., Chapter 12, Unit 15.1). Unless otherwise mentioned, all mice were age and sex-matched for all experiments.
Mice were randomly divided into four groups. For the disease prevention model, B7-H4-Ig or control IgG at 3 mg/kg was injected intraperitoneally (i.p.) on the same day as PLP130-151 priming. For the therapeutic model, B7-H4-Ig or control IgG at 3 mg/kg was given i.p. beginning on approximately Day 21 post PLP130-151 priming. In both cases, B7-H4-Ig was administrated, 3 times a week, for 2-4 weeks.
To determine the therapeutic benefit of B7-H4-Ig, murine B7-H4-Ig was tested in the PLP139-151-induced R-EAE mouse model both for prevention of disease (treatment begun on the same day of disease induction) and therapeutic intervention (treatment begun during the disease remission) settings (FIG. 33). In both cases the disease course was followed for about 2 months to assess clinical disease following the grading system shown in […].
Female SJL mice were first immunized with PLP139-151 peptide emulsified in CFA and then randomized into 2 groups for either prevention or therapeutic treatment. For each treatment regimen there were 2 subgroups, with one subgroup receiving Control IgG and the other subgroup receiving murine B7-H4-Ig. Both Control IgG and murine B7-H4-Ig were given at 3 mg/kg, 3 times a week for 4 weeks. Prevention treatment (FIG. 34) means that murine B7-H4-Ig or Control IgG was administered starting on the day at PLP immunization (t=0). Therapeutic treatment (FIG. 35) means that murine B7-H4-Ig or Control IgG was administered beginning on Day 21 (t=21). The data is presented as the mean clinical score over the 55 day time course with 5 mice per group, and the clinical scores and injection were conducted double blinded.
The effect of B7-H4-Ig treatment on the number of Treg cells in vivo was analyzed in this study. The effect of B7-H4-Ig on the number and phenotype of CD4^+ T cells infiltrating into the CNS following B7-H4-Ig treatment, the relevant site for activity in vivo, was determined. […] SJL mice were first immunized with PLP139-151 peptide. B7-H4-Ig treatment started during remission (Day 23). Mice received mouse Control IgG, 100 μg, or B7-H4-Ig at either 60 or 300 μg, 3 times per week for 2 weeks or 4 weeks. Half of the animals (5 mice from each group) were euthanized on Day 35, after 6 doses of B7-H4-Ig. The rest of the animals (5 mice from each group) were euthanized on Day 50, after 12 doses of B7-H4-Ig. Mouse spleens, draining lymph nodes, spinal cords and brains were collected, tissues were made into a single cell suspension and counted via the use of a hemocytometer, and analyzed for the presence of effector/memory CD4^+ T cells (CD4^+CD44^+) and Treg cells (CD4^+CD25^+FoxP3^+). Whole cerebellar and lumbar spinal cord tissue samples were snap frozen and processed as described above to analyze the number of CD4^+ and FoxP3^+ cells present within the CNS by histology.
Human B7-H4-Ig was also tested for its therapeutic efficacy in the PLP139-151-induced R-EAE mouse model. […]

Values joined by “and” are separate entries in the source; they are usually repeats but may differ in a detail not shown here. Equal values may be shown once. “Also recorded” adds a separate entry of the source.

“Human B7-H4-Ig: human B7-H4 extracellular domain fused to hinge, CH2 and CH3 regions of human immunoglobulin Cγ1 chain; representative SEQ ID NOs:114-137”: the CIA disease score with DBA/1 mice (AA#79, Study Day 12, individual mouse (Tag#)) is 1 (2×) and 0 (4×); in the experiment with DBA/1 mice (AA#79, Study Day 18, individual mouse (Tag#)), 2 (2×) and 1 (3×) and 0; in the experiment with DBA/1 mice (AA#79, Study Day 22, individual mouse (Tag#)), 2 (5×) and 1; in the experiment on DBA/1 mice (AA#79, Study Day 25, individual mouse (Tag#)) it was 2 (3×) and 3 (2×) and 4; with DBA/1 mice (AA#79, Study Day 27, individual mouse (Tag#)) it was 3 (2×) and 5 and 4 (3×); in the experiment with DBA/1 mice (AA#79, Study Day 29, individual mouse (Tag#)) it was 6 and 5 (2×) and 4 (2×) and 7. Moreover, the CIA disease score in the experiment with DBA/1 mice (AA#79, Study Day 32, individual mouse (Tag#)) is 5 (2×) and 4 (2×) and 2; in the experiment with DBA/1 mice (AA#79, Study Day 34, individual mouse (Tag#)), 4 (2×) and 2 and 5 (2×); in the experiment on DBA/1 mice (AA#79, Study Day 36, individual mouse (Tag#)), 4 and 5 and 1 and 6 and 3 and 12; with DBA/1 mice (AA#79, Study Day 39, individual mouse (Tag#)) it was 5 and 12 and 6 and 9 and 3 and 11; in the experiment with DBA/1 mice (AA#79, Study Day 41, individual mouse (Tag#)), 5 (2×) and 12 and 7 and 10 (2×); in the experiment on DBA/1 mice (AA#79, Study Day 43, individual mouse (Tag#)) it was 3 (2×) and 10 (2×) and 6 and 9. Moreover, the CIA disease score in the experiment on DBA/1 mice (AA#79, Study Day 46, individual mouse (Tag#)) was 4 and 9 and 10 (2×) and 11 and 3; in the experiment on DBA/1 mice (AA#79, Study Day 48, individual mouse (Tag#)), 5 and 10 (3×) and 6 and 11; in the experiment with DBA/1 mice (AA#79, Study Day 50, individual mouse (Tag#)) it was 6 (2×) and 9 (2×) and 10 and 12; in the experiment with DBA/1 mice (AA#79, Study Day 54, individual mouse (Tag#)), 3 and 10 (2×) and 13 (2×) and 5; with DBA/1 mice (AA#79, Study Day 57, individual mouse (Tag#)), 5 (2×) and 11 and 10 (2×) and 12. Besides, the “mean clinical score, primary disease relapse” value with SJL mice (5 or 25 mg/kg 3 times a week for 4 weeks from Day 23, vs Synagis (FIG. 48A)) is “reduction of mean clinical score”. The long-term relapse rate entry in the experiment with SJL mice (5 or 25 mg/kg 3 times a week for 4 weeks from Day 23, vs Synagis (FIG. 48B)) is given as “reduction in long-term relapse rate”.
For the substance “B7-H4-Ig: B7-H4 extracellular domain fused to Ig Fc; bare label is the human protein in Example 3, murine protein in Examples 1, 2, 5, 7-11”, the “disease scores, AA#79” value in the experiment on DBA/1 mice (female DBA/1 mice, 20 mg/kg IP 3× weekly, 8 doses from Day 29, vs control groups (FIG. 7), 20 mg/kg) is listed as “lower disease scores than mice in the control groups; also recorded: prolonged period of stable disease scores”. Besides, the “clinical scores (average), R-EAE” value in the experiment on SJL mice (3 mg/kg i.p. 3 times a week for 4 weeks, preventative (t=0) and therapeutic (t=21) regimens, 0-5 scale (FIGS. 34, 35)) is 0-0.5. The “disease symptoms during the acute phase of R-EAE” value in the experiment on SJL mice (1st in vivo study, treatment from the day of PLP139-151/CFA priming) is recorded as “did not affect disease symptoms during the acute phase of R-EAE”. Besides, the “mean clinical score, primary relapse” value with SJL mice (both 3 mg/kg (60 μg/dose) and 15 mg/kg (300 μg/dose), three times a week from day 23 (FIG. 46)) is given as “significantly prevented the primary relapsing”.
